Measurements reported in patent US20250263437A1, “POLYPEPTIDE FOR REPAIRING SKIN WOUND OR MUCOSAL INJURY, AND APPLICATION THEREOF” (Sichuan Gooddoctor Panxi Pharmaceutical Co., Ltd., priority 2021, published 2025).
Entries after “also recorded” stand apart in the source; their conditions may differ. Where no end group is shown, it is not given here.

Assays:
FGFR1 = FGFR1 (Homo sapiens, UniProt P11362); experiment: FGFR receptor binding assay: ultrafiltration/mass spectrometry affinity screening to FGFR1 protein target; conditions: ratio of lower-layer to upper-layer compound MS signal intensity; the greater the ratio, the stronger the affinity
Experimental: The affinity of the polypeptide compound prepared by the present invention to FGFR1 was tested by using a control FGFR1 allosteric inhibitor (product number SSR128129E from Sigma) as a positive compound control.
Screening for the affinity to FGFR1 was as follows: FGFR1 solutions with an appropriate concentration were taken, the positive compound SSR128129E (Sigma) at an appropriate concentration and sample solutions of the inventive polypeptide compounds, as freeze-dried powders, dissolved in protein buffers were then respectively added. After incubation at room temperature for 50 min, ultrafiltration and screening were carried out to obtain various treated solutions. An appropriate volume of acetonitrile was added to each treated solution to precipitate a protein, the solution was then centrifuged, and the supernatant was taken and analyzed by mass spectrometry.
Affinity screening conditions: One-dimensional liquid-phase conditions were: chromatographic column; PolyLC chromatographic column, mobile phase A: KH2PO4, NaCl, pH 7.5, mobile phase B: acetonitrile, column temperature: 8° C., flow rate: 1 mL/min, and injection volume: appropriate; and two-dimensional liquid-phase conditions were: chromatographic column: BONUS RRHD, mobile phase A: 0.1% formic acid aqueous solution, mobile phase B: 0.1% formic acid in acetonitrile, column temperature: 60° C., flow rate: 0.3 mL/min, and injection volume: 40 uL. Gradient elution was used, i.e., 98% A (0-1 min), 98-10% A (1-6 min), 10% A (6-7.5 min), 10-98% A (7.5-8 min), and 98% A (8-9.5 min). Mass spectrometry conditions: Agilent 6530 Q-Tof, ESI ion source, voltage 3.5 KV, mass-to-charge ratio scanning range m/z=200-3000, acquisition mode: positive ion scanning, ion source temperature: 350° C., solvent removal temperature: 300° C., and nitrogen flow rate: 8 L/min.

HaCaT cells = experiment: Proliferation of HaCaT cells (CCK8); assay type: cell-based, human; conditions: 0.2-0.8 μg/mL; 24 h, 48 h and 72 h; 1% serum
Experimental: Experimental method: Immortalized human keratinocytes (HaCaT cells) was adjusted to a concentration of 1.0×10^5 to 5.0×10^5/mL for passaging, and they were cultured at 37° C. and 5% CO2 for 24-36 h for biological activity detection. The cells were digested with 0.25% trypsin for 5 min, 1640 whole blood culture medium, the volume of which was not less than 1 time of the volume of the trypsin, was added to stop digestion, a cell suspension was collected, centrifuged at 1000 RPM for 3 min, the supernatant was discarded, 2 mL of 1640 whole blood culture medium was added to suspend the cells, 20 μL of the cell suspension was taken and stained with AOPI, the concentration of cells in the suspension was then detected by a cell counter, the suspension was prepared to a concentration of 5×10^4/mL with 1640 culture medium containing serum at a concentration of 10% and inoculated into a 96-well cell culture plate, with 100 μL per well, i.e., 5000 cells/well, and the plate was cultured at 37° C. and 5% CO2 overnight.
After 24 h, the original culture medium was discarded, and 100 μL of polypeptide compound solutions with different concentrations prepared with 1640 culture medium containing serum at a concentration of 1% were added, such that the final concentrations of the polypeptide compounds to be tested were 0.2, 0.4 and 0.8 ug/mL, respectively. In addition, an EGF control group was prepared by adding 100 μL of a recombinant human epidermal growth factor (EGF) solution prepared with 1640 culture medium containing serum at a concentration of 1%, with the final concentration being 100 ng/ml. In the model control group, an equal volume of 1640 culture medium containing serum at a concentration of 1% was added. After culturing at 37° C. and 5% CO2 for 24 h, 48 h and 72 h, the proliferation of the HaCaT cell line was detected by means of CCK8 kit.

[1] = system: ethanol-induced gastric ulcer model in mice; experiment: Anti-ulcer effect on ethanol-induced gastric ulcer model in mice; assay type: in vivo; conditions: single administration; ulcer inhibition rate of test compound / ulcer inhibition rate of Compound 1
Experimental: Experimental animals: Six-week old C57BL/6JGPt male mice, weighing about 20 g/mouse, were selected, with 10 mice in each group, from GemPharmatech (Chengdu) Co., Ltd., animal license number: SCXK (Chuan) 2020-034. After the experimental animals were divided into groups, they were dosed according to Table 5 one day before the experiment. Among the groups, the model group was given 200 μl of pure water, and the other dose groups were given 200 μl of drug solution. After that, all the animals were fasted for 24 h with free access to water. The next day, 1 h after administration, the mice in each group were given 9 μl/g of absolute ethanol by oral gavage for modeling. After 1 h, the animals were sacrificed by cervical dislocation, the gastric cardia was ligated, the pylorus was occluded, and the whole stomach was removed. 1 mL of 1% formaldehyde solution was injected into the gastric lumen via the glandular stomach, the cardia was ligated, and the stomach was taken out and immediately immersed in 1% formaldehyde solution. After soaking for 30 min, the stomach tissue was taken out and cut open along the greater curvature. The content of the stomach was rinsed off with normal saline, the injury of the gastric mucosa in the mice were observed and measured after being laid flat, and the ulcer index and ulcer inhibition rate were calculated; panoramic photos of the stomach were taken; and finally, the gastric tissue sample was immersed in formalin and fixed. Calculation method for ulcer index: If the length of cord-like injury was greater than 1 mm, the length thereof was measured, with 1 point per millimeter; if the width thereof was greater than 1 mm, the score thereof was doubled according to the number of millimeters of the width; and if the length was less than 1 mm, a score of 0.5 was given, and the scores were added up to obtain the ulcer index of the animal. Method of data statistics: the ulcer index was expressed as mean±standard deviation; the ulcer inhibition rate was calculated by using the median value and mean value of the ulcer index in each dosage group and simulation group; and the data were statistically analyzed by means of Excel, and the difference data of the gastric ulcer index were statistically analyzed by means of independent sample T test.

RSC96 cells = experiment: Proliferation of RSC96 cells (CCK-8); assay type: cell-based; conditions: 0.2, 0.4 and 0.8 ug/ml; 48 h; 0% serum
Experimental: Glial cells (RSC96 cells) were adjusted to a concentration of 1.0×10^5 to 5.0×10^5/mL for passaging and cultured at 37° C. and 5% CO2 for 24-36 h for biological activity detection. The cells were digested by trypsin, collected, prepared to a concentration of 5×10^4/mL with a serum-free medium, inoculated into a 96-well cell culture plate, with 100 μL per well, i.e., 5000 cells/well, and cultured overnight at 37° C. and 5% CO2. The polypeptide compound of the present invention was prepared to test concentrations (0.2 ug/ml, 0.4 ug/ml, and 0.8 ug/ml) with 0% serum culture medium as experimental groups, and an equal amount of 0% serum drug-free culture medium was added to the control group. They were added to 4 duplicate wells, and the resultants were incubated at 37° C. and 5% CO2 for 48 h. Detection of the proliferation of cells using CCK-8: the old culture medium was removed, and a serum-free medium containing 10% CCK-8 was added to each well. After incubation in an incubator for 2 h, the absorbance at 450 nm was measured by a microplate reader.

HMEC-1 cells = experiment: Proliferation of HMEC-1 cells (CCK-8); assay type: cell-based, Human; conditions: 0.05, 0.2 and 0.8 ug/mL; 48 h; 0% serum
Experimental: Human microvascular endothelial cells (HMEC-1 cells) were cultured in 10% serum culture medium at 37° C. and 5% CO2, the medium was replaced every 1-2 d, and the cell concentration was controlled to be 4×10^6 cells/mL for passage. Cells were collected, prepared to […] with complete culture medium, inoculated into a 96-well cell culture plate, with 100 μL per well, i.e., 5000 cells/well, and cultured at 37° C. and 5% CO2 until the cells adhered to the wall. The polypeptide compound of the present invention was prepared to test concentrations (0.05 ug/mL, 0.2 ug/mL, and 0.8 ug/mL) with 0% serum culture medium as experimental groups, a positive drug (300 ng/ml) was prepared in the same way and added as a positive control, and an equal amount of 0% serum drug-free culture medium was added to the control group. They were added to 5 duplicate wells, and the resultants were incubated at 37° C. and 5% CO2 for 48 h. Detection of the proliferation of cells using CCK-8: the old culture medium was removed, and a serum-free medium containing 10% CCK-8 was added to each well. After incubation in an incubator for 2 h, the absorbance at 450 nm was measured by a microplate reader.

FGFR1, sequence (P11362 22-822, species assumed): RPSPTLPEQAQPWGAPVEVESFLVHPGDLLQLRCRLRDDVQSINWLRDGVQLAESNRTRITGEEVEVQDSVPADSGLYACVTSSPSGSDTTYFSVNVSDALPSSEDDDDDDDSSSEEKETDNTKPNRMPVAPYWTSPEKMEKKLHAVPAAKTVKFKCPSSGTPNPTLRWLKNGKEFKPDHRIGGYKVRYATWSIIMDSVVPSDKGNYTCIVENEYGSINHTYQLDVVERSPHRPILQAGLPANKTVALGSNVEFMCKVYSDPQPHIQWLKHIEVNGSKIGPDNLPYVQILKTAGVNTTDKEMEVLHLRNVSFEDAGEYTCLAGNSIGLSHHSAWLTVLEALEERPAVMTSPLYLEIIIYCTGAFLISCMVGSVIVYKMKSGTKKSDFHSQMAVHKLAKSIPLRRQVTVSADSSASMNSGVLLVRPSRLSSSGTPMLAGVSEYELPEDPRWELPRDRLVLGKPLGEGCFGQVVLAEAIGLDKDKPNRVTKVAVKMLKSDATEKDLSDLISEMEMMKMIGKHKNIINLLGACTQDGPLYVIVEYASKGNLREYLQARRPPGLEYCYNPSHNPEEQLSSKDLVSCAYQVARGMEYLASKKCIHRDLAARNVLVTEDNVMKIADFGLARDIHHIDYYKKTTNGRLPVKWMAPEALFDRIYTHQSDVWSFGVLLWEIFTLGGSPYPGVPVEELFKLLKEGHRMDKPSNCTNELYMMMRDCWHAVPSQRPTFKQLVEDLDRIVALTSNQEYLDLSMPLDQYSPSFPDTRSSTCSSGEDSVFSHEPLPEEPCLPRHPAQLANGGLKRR

Row | Sequence | Cb/Ct range (FGFR1) | effect on proliferation of HaCaT cells (HaCaT cells) | Anti-ulcer activity (mean relative ulcer inhibition rate) [1] | effect on proliferation of RSC96 cells (RSC96 cells) | effect on proliferation of HMEC-1 cells (HMEC-1 cells)
1 | EINQLELIKQASI [Compound 64] | 1.0-3 | proliferation-promoting effect | 0.61 | significant proliferation promoting effects | proliferation-promoting effect
2 | HCLAGLKKDLEDLE [Compound 63] | 1.0-3 | proliferation-promoting effects | 1.99 | proliferation-promoting effect | 
3 | KFYSQSTASSSYAYPSHFGPAGFSGSHS [Compound 70] | 1.0-3 | proliferation-promoting effect | 0.39 | inhibitory effect | 
4 | VDAAMVLLTR [Compound 72] | 1.0-3 | proliferation-promoting effect | 1.65 |  | significant proliferation promoting effects; also recorded: proliferation-promoting effect
5 | VDAAVIEKIE [Compound 71] | 1.0-3 | proliferation-promoting effect | 0.77 |  | proliferation-promoting effect

Continued, in another order:

Row | Cb/Ct range (FGFR1) | Sequence | effect on proliferation of HaCaT cells (HaCaT cells) | Anti-ulcer activity (mean relative ulcer inhibition rate) [1] | effect on proliferation of RSC96 cells (RSC96 cells) | effect on proliferation of HMEC-1 cells (HMEC-1 cells)
6 | 1.0-3 | AARLADELRAE [Compound 65] | proliferation-promoting effect | 1.29 | proliferation-promoting effect | 
7 | 1.0-3 | ETLQRKNKE [Compound 66] | proliferation-promoting effect | 0.52 | significant proliferation promoting effects | 
8 | 1.0-3 | VDAAVLMLRT [Compound 73] | proliferation-promoting effect | 1.46 | proliferation-promoting effect | proliferation-promoting effect
